Experimental findings from patent publication US20120094384A1, “USE OF COMPOUNDS FOR DIFFERENTIATION OF CELLS” (priority 2009, published 2012) are described below.

Structures are written as SMILES.

For this assay, the system named is mouse embryonic stem cells (mESC's). Description: Mouse embryonic stem cell differentiation assessed by GeneChip array (Affymetrix GeneChip Mouse Exon 1.0ST). Particulars: 0.5 μM, 96 hours, spontaneously differentiating mESC's. The assay is classed as cell-based. On the procedure: Undifferentiated mouse embryonic stem cells (mESC's) were seeded at a density of 1.3×10^6 cells on 6 cm uncoated bacterial grade dishes. Spontaneous differentiation was initiated by removal of LIF from the new incubation medium, which consisted of 2% serum KO DMEM+/−AO-1-530 (0.5 μM). AO-1-530 is the same compound used in Examples 1 and 2. There were three treated and three control replicates.
Cells were incubated on a shaking platform at 37° C. for 24 hours at which time the plating media was removed and fresh medium, or AO-1-530 treated medium added as appropriate. This was repeated at 48 hours and 72 hours.
The partially-differentiated cells or embryoid bodies (EB's) were harvested at 96 hours, washed with PBS, re-suspended in Trizol and stored at −80° C. awaiting RNA extraction. The cells were subsequently thawed and RNA extracted using a standard Trizol isolation procedure with an additional clean-up performed using a Qiagen RNeasy Mini kit and DNase digestion as per the manufacturer's instructions. cRNA was prepared from the tRNA, then hybridised to the Affymetrix GeneChip Mouse Exon 1.0ST array, washed, stained then scanned.
P-value cut-off: 0.05 P-value computation: Asymptotic Multiple testing correction: Benjamini-Hochberg

Turning to `CCCCCCCCCCc1ccc2c(=O)c(O)c(-c3cc(O)c(O)c(O)c3)oc2c1` [AO1530], the “Neurod1 and Fgf4 genes relative to the control cells” value was “increase”; the “remaining 6 genes (Fgf10, Bry, Podxl, Map4k1, Pak1, Eomes) relative to the control cells” value is “decreased”. Also, where the note is “T-test, Benjamini-Hochberg”, the “number of genes with significantly altered (P<0.05) expression compared with the controls” value was 315 genes. For the setting “[Control] (normalized) 0.17034023”, the “[Drug] (normalized) Pak1” value is given as −0.2141. Moreover, the “[Drug] (normalized) Bry” value ([Control] (normalized) 0.32084307) is −0.4595. Moreover, the “[Drug] (normalized) Podxl” value ([Control] (normalized) 0.32956442) was −0.3278. For the setting “[Control] (normalized) 0.44043383”, the “[Drug] (normalized) Eomes” value is listed as −0.5036. The “[Drug] (normalized) Fgf10” value ([Control] (normalized) 0.50325745) is −0.5713. Besides, for the setting “[Control] (normalized) −0.1732769”, the “[Drug] (normalized) Map4k1” value is reported as 0.1637. In addition, for the setting “[Control] (normalized) −0.46519312”, the “[Drug] (normalized) Neurod1” value amounted to 0.4739. The “[Drug] (normalized) Fgf4” value ([Control] (normalized) −0.48913416) is recorded as 0.3787. For the same molecule, the “[Drug](raw) Fgf10” value ([Control](raw) 394.5062) was 187.7. Besides, the “[Drug](raw) Neurod1” value ([Control](raw) 420.62076) was 806. Besides, where the note is “[Control](raw) 814.98”, the “[Drug](raw) Map4k1” value is listed as 1029.3136. Further, the “[Drug](raw) Eomes” value ([Control](raw) 2057.381) was determined as 1071.638. The “[Drug](raw) Fgf4” value ([Control](raw) 2079.3152) stood at 3787.6875. Besides, the “[Drug](raw) Pak1” value ([Control](raw) 2240.5337) was 1717.2704. The “[Drug](raw) Podxl” value ([Control](raw) 3411.1348) came to 2162.7986. For the same molecule, the “[Drug](raw) Bry” value ([Control](raw) 8229.497) is given as 4804.9707.
